Legend:
NK-YS (IL-2 2.5 ng/mL) [1] = test: drug sensitivity score (DSS) (DSS units); higher = more sensitive; extreme values may be limits of the assay; settings: 72 h
KHYG-1 (IL-2 2.5 ng/mL) [2] = test: as above; settings: 72 h
KAI3 (IL-2 2.5 ng/mL) [3] = test: as above; settings: 72 h
NKL (IL-2 2.5 ng/mL) [4] = test: as above; settings: 72 h
DERL-7 (IL-2 2.5 ng/mL) [5] = test: as above; settings: 72 h
SNK-6 (IL-2 2.5 ng/mL) [6] = test: as above; settings: 72 h
[7] = tested on: normal primary NK cells, pool 1 (3 donors), resting (IL-2 0 ng/mL); test: as above; settings: 72 h
[8] = tested on: normal primary NK cells, pool 1 (3 donors) (IL-2 2.5 ng/mL); test: as above; settings: 72 h
IMC-1 (IL-2 20 ng/mL) [9] = test: as above; settings: 72 h
NK-92 (IL-2 2.5 ng/mL) [10] = test: as above; settings: 72 h
[11] = tested on: normal primary NK cells, pool 2 (3 donors) (IL-2 2.5 ng/mL); test: as above; settings: 72 h
YT (IL-2 2.5 ng/mL) [12] = test: as above; settings: 72 h
[13] = tested on: normal primary NK cells, pool 3 (3 donors) (IL-2 2.5 ng/mL); test: as above; settings: 72 h
[14] = tested on: normal NK cells expanded with K562-aAPC; test: percent inhibition of viability; higher = more inhibition; settings: 72 h, IL-2 2.5 ng/mL
Method: (§1)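 Drug sensitivity and resistance testing on K562-aAPC-expanded normal NK cells: 5 concentrations (10-fold steps over a 10,000-fold range), 72 h at 37 °C, viability by CellTiter-Glo normalised to DMSO and benzethonium chloride controls; DSS from the fitted curve.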

NK-YS (IL-2 2.5 ng/mL) [15] = test: as above; settings: 72 h
KHYG-1 (IL-2 2.5 ng/mL) [16] = test: as above; settings: 72 h
KAI3 (IL-2 2.5 ng/mL) [17] = test: as above; settings: 72 h
NKL (IL-2 2.5 ng/mL) [18] = test: as above; settings: 72 h
DERL-7 (IL-2 2.5 ng/mL) [19] = test: as above; settings: 72 h
SNK-6 (IL-2 2.5 ng/mL) [20] = test: as above; settings: 72 h
[21] = tested on: normal primary NK cells, pool 1 (3 donors), resting (IL-2 0 ng/mL); test: as above; settings: 72 h
[22] = tested on: normal primary NK cells, pool 1 (3 donors) (IL-2 2.5 ng/mL); test: as above; settings: 72 h
IMC-1 (IL-2 20 ng/mL) [23] = test: as above; settings: 72 h
NK-92 (IL-2 2.5 ng/mL) [24] = test: as above; settings: 72 h
[25] = tested on: normal primary NK cells, pool 2 (3 donors) (IL-2 2.5 ng/mL); test: as above; settings: 72 h
YT (IL-2 2.5 ng/mL) [26] = test: as above; settings: 72 h
[27] = tested on: normal primary NK cells, pool 3 (3 donors) (IL-2 2.5 ng/mL); test: as above; settings: 72 h
[28] = tested on: normal NK cells expanded with K562-aAPC; test: drug sensitivity score (DSS) (DSS units); higher = more sensitive; extreme values may be limits of the assay; settings: 72 h; IL-2 2.5 ng/mL
Method: as §1

CC(C)Oc1cc(Nc2nc(N[C@@H](C)c3ccc(F)cn3)ncc2Cl)n[nH]1 [AZ-23] (max concentration tested 1000 nM)
Settings | drug sensitivity score
DERL-7 (IL-2 2.5 ng/mL) [5] | 0.51
IMC-1 (IL-2 20 ng/mL) [9] | 0
KAI3 (IL-2 2.5 ng/mL) [3] | 2.21
KHYG-1 (IL-2 2.5 ng/mL) [2] | 0.25
NK-92 (IL-2 2.5 ng/mL) [10] | 0
NK-YS (IL-2 2.5 ng/mL) [1] | 0.85
NKL (IL-2 2.5 ng/mL) [4] | 4.11
SNK-6 (IL-2 2.5 ng/mL) [6] | 3.55
YT (IL-2 2.5 ng/mL) [12] | 0.01
[7] | 0
[8] | 0
[11] | 7.86
[13] | 0
[28] | 2.75

percent inhibition of viability [%]
Settings | 0.1 nM | 1 nM | 10 nM | 100 nM | 1000 nM
DERL-7 (IL-2 2.5 ng/mL) [19] | -2.19 | -3.08 | 4.42 | 0.42 | 18.3
IMC-1 (IL-2 20 ng/mL) [23] | 1.36 | 2.7 | 8 | 5.82 | 6.35
KAI3 (IL-2 2.5 ng/mL) [17] | 0.26 | -1.15 | 7.26 | 4.08 | 33.3
KHYG-1 (IL-2 2.5 ng/mL) [16] | -3.32 | 3.62 | 8.53 | 3.55 | 16.2
NK-92 (IL-2 2.5 ng/mL) [24] | -8.37 | -0.57 | 6.98 | -18.1 | -10.1
NK-YS (IL-2 2.5 ng/mL) [15] | -4.76 | 0.81 | 3.08 | 0.21 | 23.1
NKL (IL-2 2.5 ng/mL) [18] | -5.13 | -8.13 | 11.5 | 13 | 49.2
SNK-6 (IL-2 2.5 ng/mL) [20] | -7.56 | 5.32 | 3.77 | 17.8 | 36.8
YT (IL-2 2.5 ng/mL) [26] | -1.34 | 0.79 | 6.32 | -2.16 | 11.8
[14] | 2.78 | -2.04 | 0.04 | 9.24 | 31.4
[21] | -13.2 | -3.44 | -0.59 | -21.9 | -26.6
[22] | -2.92 | -1.19 | -3.79 | -5.46 | 7.88
[25] | -2.37 | -3.09 | -7.97 | 98.9 | 20
[27] | -9.03 | -10.1 | -13.7 | 0.83 | 6.87

Cc1ccc(C(=O)Nc2ccc(CN3CCN(C)CC3)c(C(F)(F)F)c2)cc1C#Cc1cnc2cccnn12 [Ponatinib] (max concentration tested 1000 nM)
Settings | drug sensitivity score
DERL-7 (IL-2 2.5 ng/mL) [5] | 6.96
IMC-1 (IL-2 20 ng/mL) [9] | 0
KAI3 (IL-2 2.5 ng/mL) [3] | 6.4
KHYG-1 (IL-2 2.5 ng/mL) [2] | 4.12
NK-92 (IL-2 2.5 ng/mL) [10] | 2.11
NK-YS (IL-2 2.5 ng/mL) [1] | 2.89
NKL (IL-2 2.5 ng/mL) [4] | 8.25
SNK-6 (IL-2 2.5 ng/mL) [6] | 0
YT (IL-2 2.5 ng/mL) [12] | 7.33
[7] | 8.02
[8] | 5.73
[11] | 3.94
[13] | 2.66
[28] | 3.2

percent inhibition of viability [%]
Settings | 0.1 nM | 1 nM | 10 nM | 100 nM | 1000 nM
DERL-7 (IL-2 2.5 ng/mL) [19] | 6.88 | 2.27 | -1.37 | 18.4 | 74.2
IMC-1 (IL-2 20 ng/mL) [23] | -6.8 | -0.24 | -8.73 | -1.9 | -20.2
KAI3 (IL-2 2.5 ng/mL) [17] | -7.8 | -3.54 | 0.07 | 10.6 | 83.4
KHYG-1 (IL-2 2.5 ng/mL) [16] | -7.12 | -3.44 | -4.86 | 3.85 | 65.1
NK-92 (IL-2 2.5 ng/mL) [24] | -13.8 | -10.1 | -23.1 | -19.9 | 55
NK-YS (IL-2 2.5 ng/mL) [15] | -8.44 | -4.74 | -4.88 | 8.88 | 33.5
NKL (IL-2 2.5 ng/mL) [18] | -13.5 | -11.6 | 1.83 | 36.3 | 70.1
SNK-6 (IL-2 2.5 ng/mL) [20] | 11.2 | 4.03 | -7.68 | -18.6 | -2.96
YT (IL-2 2.5 ng/mL) [26] | -6.26 | -2.49 | 1.52 | 27 | 68.5
[14] | -4.16 | -2.02 | 24.4 | -11.2 | 70.4
[21] | 1.74 | 25.3 | 15.3 | 19.4 | 60
[22] | 2.63 | 6.68 | 12.1 | 7.51 | 81.5
[25] | 2.87 | -1.56 | 1.5 | -2.42 | 75
[27] | -2.51 | 2.42 | 9.55 | -20 | 65

C[C@@H]1CN(CC(=O)Nc2ccc3c(c2)Cc2cccc(-c4cc(=O)cc(N5CCOCC5)o4)c2S3)C[C@H](C)O1 (max concentration tested 25000 nM)
Settings | drug sensitivity score
DERL-7 (IL-2 2.5 ng/mL) [5] | 6.89
IMC-1 (IL-2 20 ng/mL) [9] | 5.86
KAI3 (IL-2 2.5 ng/mL) [3] | 7.81
KHYG-1 (IL-2 2.5 ng/mL) [2] | 8.65
NK-92 (IL-2 2.5 ng/mL) [10] | 8.57
NK-YS (IL-2 2.5 ng/mL) [1] | 6.02
NKL (IL-2 2.5 ng/mL) [4] | 7.43
SNK-6 (IL-2 2.5 ng/mL) [6] | 6.99
YT (IL-2 2.5 ng/mL) [12] | 6.69
[7] | 8.7
[8] | 6.71
[11] | 5.1
[13] | 3.14
[28] | 2.76

percent inhibition of viability [%]
Settings | 2.5 nM | 25 nM | 250 nM | 2500 nM | 25000 nM
DERL-7 (IL-2 2.5 ng/mL) [19] | -2 | -3.36 | -4.44 | 13 | 85.2
IMC-1 (IL-2 20 ng/mL) [23] | -9.5 | -5.69 | -6.07 | 2.99 | 98.3
KAI3 (IL-2 2.5 ng/mL) [17] | 5.88 | 0.49 | -7.91 | 18.6 | 87.2
KHYG-1 (IL-2 2.5 ng/mL) [16] | -6.23 | -8.72 | -3.2 | 18.6 | 107
NK-92 (IL-2 2.5 ng/mL) [24] | -7.1 | -15.1 | -2.57 | 18.6 | 101
NK-YS (IL-2 2.5 ng/mL) [15] | -6.64 | -9 | -7.16 | 8.32 | 84.3
NKL (IL-2 2.5 ng/mL) [18] | -13.9 | -22.8 | -12.4 | 24.9 | 71
SNK-6 (IL-2 2.5 ng/mL) [20] | -10.7 | -10.4 | -8.37 | 9 | 100
YT (IL-2 2.5 ng/mL) [26] | -6.13 | -5.84 | -0.59 | 8.43 | 96.4
[14] | -9.26 | -9.66 | -11.6 | -3.45 | 56.6
[21] | 10.2 | 6.26 | 7.45 | 30.7 | 89
[22] | -8.95 | -10.4 | -7.4 | 10 | 91.3
[25] | -2.96 | -5.92 | 1.66 | 7.62 | 69.8
[27] | -1.38 | 0.2 | 6.37 | -0.76 | 59.3

CC(C)c1c(C(=O)Nc2ccccc2)c(-c2ccccc2)c(-c2ccc(F)cc2)n1CC[C@@H](O)C[C@@H](O)CC(=O)O [Atorvastatin] (max concentration tested 10000 nM)
Settings | drug sensitivity score
DERL-7 (IL-2 2.5 ng/mL) [5] | 4
IMC-1 (IL-2 20 ng/mL) [9] | 9.38
KAI3 (IL-2 2.5 ng/mL) [3] | 3.95
KHYG-1 (IL-2 2.5 ng/mL) [2] | 5.76
NK-92 (IL-2 2.5 ng/mL) [10] | 2.7
NK-YS (IL-2 2.5 ng/mL) [1] | 14
NKL (IL-2 2.5 ng/mL) [4] | 17.2
SNK-6 (IL-2 2.5 ng/mL) [6] | 2.14
YT (IL-2 2.5 ng/mL) [12] | 9
[7] | 2.71
[8] | 0.79
[11] | 1.06
[13] | 0
[28] | 0.92

percent inhibition of viability [%]
Settings | 1 nM | 10 nM | 100 nM | 1000 nM | 10000 nM
DERL-7 (IL-2 2.5 ng/mL) [19] | -2.58 | -0.16 | -3.51 | 6.56 | 54.2
IMC-1 (IL-2 20 ng/mL) [23] | -2.01 | 0.19 | 4.44 | 25.6 | 99.2
KAI3 (IL-2 2.5 ng/mL) [17] | -7.62 | -6.46 | -2.5 | 3.32 | 63.8
KHYG-1 (IL-2 2.5 ng/mL) [16] | 1.48 | -0.11 | 9.42 | 7.71 | 81.3
NK-92 (IL-2 2.5 ng/mL) [24] | -10.9 | -15.5 | 4.4 | -6.37 | 58.2
NK-YS (IL-2 2.5 ng/mL) [15] | 0.24 | 1.58 | 11.9 | 64.8 | 103
NKL (IL-2 2.5 ng/mL) [18] | -16 | -12.1 | 14.8 | 83.8 | 102
SNK-6 (IL-2 2.5 ng/mL) [20] | -3.12 | 4.06 | 1.93 | 0.27 | 41.9
YT (IL-2 2.5 ng/mL) [26] | 0.23 | 1.11 | 4.51 | 22.4 | 99.1
[14] | -5.69 | -0.26 | -0.77 | -4.84 | 28.3
[21] | -1.6 | -6.76 | -4.51 | 2.54 | 45.6
[22] | -3.15 | -14.1 | -7.04 | -6.72 | 27.1
[25] | -7.16 | -1.31 | 1.87 | -2.86 | 29.2
[27] | -6.89 | -6.08 | -9.88 | -12.8 | 4.72
